Measurements published in publication PMC11045757, “Group 3 medulloblastoma transcriptional networks collapse under domain specific EP300/CBP inhibition” (Nature Communications, 2024).

Tested on: 460 barcoded cancer cell lines
Experiment: PRISM pooled barcoded cancer cell line growth screen, 10-point dose-response, 5 days, AUC
Assay type: cell-based
Set-up: scale not given here
Source text: Several small molecule inhibitors of distinct protein domains of EP300/CBP are available, though the majority target the histone acetyltransferase domain (HAT) or bromodomain (BRD)[5],[10],[21],[22]. […] We used these tools to investigate the relative contribution of the EP300/CBP BRD or HAT domain to tumor cell growth (Fig. 1a). To do so, we performed 10-point, dose-response growth assays using mixed pools of 460 barcoded cancer cell lines, over five days of treatment in vitro[33],[34]. Growth was measured using an area-under-the-curve (AUC) approach (Supplementary Table 1, Supplementary Fig. 1a). […] Given potential differences in compound penetration and solubility, and to compare the relative cell line and tumor-specific effects of these two compounds in assays performed non-simultaneously, we performed a median normalization of each dataset (Supplementary Table 2).

CO[C@H]1CC[C@H](n2c([C@@H]3CCCC(=O)N3c3ccc(F)c(F)c3)nc3cc(-c4c(C)noc4C)ccc32)CC1 [CCS1477]
AUC (22RV1, Prostate Cancer): 0.7824
AUC (42MGBA, Glioma): 0.959
AUC (143B, Osteosarcoma): 0.7756
AUC (639V, Bladder Cancer): 1
AUC (647V, Bladder Cancer): 0.9387
AUC (697, B-cell Leukemia): 0.8421
AUC (769P, Kidney Cancer): 0.866
AUC (5637, Bladder Cancer): 0.9709
AUC (8305C, Thyroid Cancer): 0.9842
AUC (A101D, Melanoma): 0.9949
AUC (A204, Rhabdoid): 0.6935
AUC (A253, Head and Neck Cancer): 0.8895
AUC (A375, Melanoma): 0.896
AUC (A427, Lung Cancer): 0.8534
AUC (A673, Ewing Sarcoma): 0.974
AUC (A1207, Glioblastoma): 1
AUC (ACHN, Kidney Cancer): 0.9303
AUC (AM38, Glioblastoma): 0.9422
AUC (AN3CA, Endometrial/Uterine Cancer): 0.9421
AUC (AU565, Breast Cancer): 0.9734
AUC (BDCM, AML): 0.9113
AUC (BEN, Lung Cancer): 0.7123
AUC (BFTC905, Bladder Cancer): 0.9629
AUC (BHT101, Thyroid Cancer): 0.7216
AUC (BICR16, Head and Neck Cancer): 0.7276
AUC (BICR18, Head and Neck Cancer): 0.7534
AUC (BICR22, Head and Neck Cancer): 0.8618
AUC (BICR31, Head and Neck Cancer): 0.8654
AUC (BICR56, Head and Neck Cancer): 0.8942
AUC (BT16, Rhabdoid): 0.8481
AUC (BT474, Breast Cancer): 0.9512
AUC (C32, Melanoma): 0.5879
AUC (C8166, Lymphoma): 0.8246
AUC (CADOES1, Ewing Sarcoma): 0.8986
AUC (CAKI1, Kidney Cancer): 0.9906
AUC (CAL27, Head and Neck Cancer): 0.9982
AUC (CAL54, Kidney Cancer): 0.8391
AUC (CAL62, Thyroid Cancer): 0.9564
AUC (CAL78, Chondrosarcoma): 0.8691
AUC (CAL120, Breast Cancer): 0.9482
AUC (CAOV3, Ovarian Cancer): 0.8478
AUC (CBAGPN, Ewing Sarcoma): 0.8224
AUC (CCK81, Colon/Colorectal Cancer): 0.8227
AUC (CHL1, Melanoma): 0.6111
AUC (CHLA06ATRT, Rhabdoid): 1
AUC (CHLA10, Ewing Sarcoma): 0.9814
AUC (CHLA15, Neuroblastoma): 0.7397
AUC (CHLA57, Ewing Sarcoma): 0.9985
AUC (CHP212, Neuroblastoma): 0.8537
AUC (CI1, B-cell Lymphoma): 0.9278
AUC (CJM, Melanoma): 0.8842
AUC (CL11, Colon/Colorectal Cancer): 0.761
AUC (CL34, Colon/Colorectal Cancer): 0.9427
AUC (CMLT1, CML): 0.8343
AUC (COGAR359, Rhabdoid): 1
AUC (COGE352, Ewing Sarcoma): 0.998
AUC (COLO320, Colon/Colorectal Cancer): 0.8831
AUC (COLO678, Colon/Colorectal Cancer): 0.8848
AUC (COLO783, Melanoma): 0.9736
AUC (COLO792, Melanoma): 0.8076
AUC (CORL23, Lung Cancer): 0.9125
AUC (CORL105, Lung Cancer): 0.8782
AUC (COV318, Ovarian Cancer): 0.899
AUC (COV434, Ovarian Cancer): 0.9687
AUC (CW2, Colon/Colorectal Cancer): 0.9939
AUC (CW9019, Rhabdomyosarcoma): 0.9021
AUC (DAOY, Medulloblastoma): 0.8871
AUC (DEL, Lymphoma): 1
AUC (DETROIT562, Head and Neck Cancer): 0.9177
AUC (DKMG, Glioblastoma): 1
AUC (DL, Rhabdoid): 0.7415
AUC (DMS53, Lung Cancer): 0.712
AUC (DMS273, Lung Cancer): 1
AUC (DND41, T-acute leukemia): 0.9395
AUC (DU145, Prostate Cancer): 0.9501
AUC (DU4475, Breast Cancer): 0.7484
AUC (DV90, Lung Cancer): 0.9154
AUC (EB1, Lymphoma): 0.7489
AUC (EBC1, Lung Cancer): 0.7317
AUC (ECC10, Gastric Cancer): 0.9776
AUC (ECGI10, Esophageal Cancer): 0.9953
AUC (EFE184, Endometrial/Uterine Cancer): 0.7698
AUC (EFM19, Breast Cancer): 0.7512
AUC (EFO21, Ovarian Cancer): 0.9901
AUC (EM2, CML): 0.9432
AUC (EN, Endometrial/Uterine Cancer): 1
AUC (ES2, Ovarian Cancer): 0.9355
AUC (ESS1, Endometrial/Uterine Cancer): 0.9966
AUC (EW8, Ewing Sarcoma): 1
AUC (EWS502, Ewing Sarcoma): 0.7102
AUC (FADU, Head and Neck Cancer): 0.8918
AUC (FTC133, Thyroid Cancer): 0.9601
AUC (FTC238, Thyroid Cancer): 0.9961
AUC (G292CLONEA141B1, Osteosarcoma): 1
AUC (G361, Melanoma): 0.6349
AUC (G401, Rhabdoid): 0.8875
AUC (G402, Rhabdoid): 0.8394
AUC (GB1, Glioblastoma): 0.7767
AUC (GCT, Pleomorphic Sarcoma): 0.9612
AUC (GI1, Glioblastoma): 0.7855
AUC (GOS3, Glioblastoma): 0.984
AUC (GP2D, Colon/Colorectal Cancer): 0.7748
AUC (GRANTA519, Lymphoma): 0.9571
AUC (GSS, Gastric Cancer): 0.646
AUC (HARA, Lung Cancer): 0.9612
AUC (HCC33, Lung Cancer): 0.9669
AUC (HCC38, Breast Cancer): 0.8868
AUC (HCC44, Lung Cancer): 0.9456
AUC (HCC56, Colon/Colorectal Cancer): 0.9605
AUC (HCC78, Lung Cancer): 0.8972
AUC (HCC95, Lung Cancer): 0.9968
AUC (HCC515, Lung Cancer): 0.7803
AUC (HCC1419, Breast Cancer): 0.8162
AUC (HCC1428, Breast Cancer): 0.8123
AUC (HCC1438, Lung Cancer): 0.9027
AUC (HCC1806, Breast Cancer): 0.9831
AUC (HCC1937, Breast Cancer): 1
AUC (HCC2108, Lung Cancer): 0.7949
AUC (HCC4006, Lung Cancer): 0.9703
AUC (HCT116, Colon/Colorectal Cancer): 0.9792
AUC (HDMYZ, Lymphoma): 0.8423
AUC (HDQP1, Breast Cancer): 0.939
AUC (HEC1B, Endometrial/Uterine Cancer): 0.8393
AUC (HEC6, Endometrial/Uterine Cancer): 0.9929
AUC (HEC50B, Endometrial/Uterine Cancer): 0.7901
AUC (HEL9217, AML): 0.6249
AUC (HEL, AML): 0.5914
AUC (HEP3B217, Liver Cancer): 0.9151
AUC (HEPG2, Liver Cancer): 0.7882
AUC (HEYA8, Ovarian Cancer): 0.9726
AUC (HGC27, Gastric Cancer): 0.9831
AUC (HH, Lymphoma): 0.8948
AUC (HOS, Osteosarcoma): 0.9628
AUC (HPBALL, T-acute leukemia): 0.9516
AUC (HS294T, Melanoma): 0.9659
AUC (HS766T, Pancreatic Cancer): 0.9722
AUC (HSC2, Head and Neck Cancer): 0.9695
AUC (HSC3, Head and Neck Cancer): 0.9769
AUC (HT29, Colon/Colorectal Cancer): 0.658
AUC (HT115, Colon/Colorectal Cancer): 0.9413
AUC (HT144, Melanoma): 1
AUC (HT1197, Bladder Cancer): 0.9485
AUC (HT, B-cell Lymphoma): 0.7078
AUC (HUCCT1, Bile Duct Cancer): 0.9905
AUC (HUG1N, Gastric Cancer): 0.95
AUC (HUH1, Liver Cancer): 0.8468
AUC (HUH7, Liver Cancer): 1
AUC (HUH28, Bile Duct Cancer): 0.9991
AUC (HUPT3, Pancreatic Cancer): 0.8687
AUC (HUPT4, Pancreatic Cancer): 0.7771
AUC (HUT78, Lymphoma): 0.9925
AUC (IALM, Lung Cancer): 0.7856
AUC (IGR37, Melanoma): 1
AUC (IGROV1, Ovarian Cancer): 0.9601
AUC (IM95, Gastric Cancer): 0.8194
AUC (IPC298, Melanoma): 0.9388
AUC (ISHIKAWAHERAKLIO02ER, Endometrial/Uterine Cancer): 0.9971
AUC (ISTMES1, Lung Cancer): 0.9282
AUC (J82, Bladder Cancer): 1
AUC (JEKO1, Lymphoma): 0.9796
AUC (JHH1, Liver Cancer): 0.7664
AUC (JHH4, Liver Cancer): 0.9641
AUC (JHH5, Liver Cancer): 0.6818
AUC (JHH7, Liver Cancer): 0.9818
AUC (JHOC5, Ovarian Cancer): 1
AUC (JHUEM7, Endometrial/Uterine Cancer): 0.8239
AUC (JVM3, B-cell Leukemia): 0.9481
AUC (K029AX, Melanoma): 0.7327
AUC (KALS1, Glioblastoma): 0.99
AUC (KARPAS620, Myeloma): 0.9486
AUC (KATOIII, Gastric Cancer): 0.9783
AUC (KCL22, CML): 0.7293
AUC (KD, Rhabdoid): 0.7052
AUC (KE37, T-acute leukemia): 0.8049
AUC (KE39, Gastric Cancer): 1
AUC (KELLY, Neuroblastoma): 0.8609
AUC (KMBC2, Bladder Cancer): 0.8012
AUC (KMS11, Myeloma): 0.8305
AUC (KMS12BM, Myeloma): 0.8083
AUC (KMS18, Myeloma): 0.8881
AUC (KMS21BM, Myeloma): 0.9427
AUC (KMS28BM, Myeloma): 0.7058
AUC (KMS34, Myeloma): 0.8725
AUC (KNS42, Glioblastoma): 0.9251
AUC (KNS60, Glioblastoma): 0.8942
AUC (KNS62, Lung Cancer): 0.9516
AUC (KP3, Pancreatic Cancer): 1
AUC (KPNYN, Neuroblastoma): 0.9626
AUC (KS1, Glioma): 0.7921
AUC (KU1919, Bladder Cancer): 0.7361
AUC (KYM1, Rhabdoid): 0.9475
AUC (KYSE30, Esophageal Cancer): 0.989
AUC (KYSE150, Esophageal Cancer): 0.988
AUC (KYSE410, Esophageal Cancer): 0.9549
AUC (KYSE510, Esophageal Cancer): 0.928
AUC (KYSE520, Esophageal Cancer): 0.9953
AUC (LAMA84, CML): 0.8874
AUC (LC1SQSF, Lung Cancer): 0.9937
AUC (LCLC103H, Lung Cancer): 0.945
AUC (LI7, Liver Cancer): 0.8469
AUC (LK2, Lung Cancer): 0.7132
AUC (LMSU, Gastric Cancer): 0.9918
AUC (LN18, Glioblastoma): 0.9905
AUC (LNCAPCLONEFGC, Prostate Cancer): 0.7183
AUC (LOUNH91, Lung Cancer): 1
AUC (LOVO, Colon/Colorectal Cancer): 0.6312
AUC (LOXIMVI, Melanoma): 0.8683
AUC (LS180, Colon/Colorectal Cancer): 0.9873
AUC (LS411N, Colon/Colorectal Cancer): 0.9732
AUC (LUDLU1, Lung Cancer): 0.9677
AUC (LXF289, Lung Cancer): 0.9728
AUC (M059K, Glioblastoma): 0.8113
AUC (MALME3M, Melanoma): 0.7988
AUC (MC116, B-cell Lymphoma): 0.9377
AUC (MCAS, Ovarian Cancer): 0.9952
AUC (MCF7, Breast Cancer): 0.7913
AUC (MDAMB175VII, Breast Cancer): 0.9996
AUC (MDAMB231, Breast Cancer): 0.8811
AUC (MDAMB361, Breast Cancer): 0.7401
AUC (MDAMB436, Breast Cancer): 1
AUC (MDAMB453, Breast Cancer): 0.5759
AUC (MDAMB468, Breast Cancer): 1
AUC (MDST8, Colon/Colorectal Cancer): 0.9162
AUC (MELHO, Melanoma): 0.7224
AUC (MESSA, Uterine Sarcoma): 0.7646
AUC (MFE280, Endometrial/Uterine Cancer): 0.8205
